Reference: US12552783B2, “Modulators of proteolysis and associated methods of use” (Arvinas Operations, Inc., priority 2018, dated 2026)

Biological target: KRas (Homo sapiens, UniProt P01116, G12C)
Experiment: KRas degradation in NCI-H2030 cells by Western blot, normalized to GAPDH (data of Table 14)
Assay type: cell-based
Parameters: host or cells: NCI-H2030
Conditions: for Dmax: NCI-H2030
Outline: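 Cells plated overnight, switched to FBS-free medium for 24 h, then treated (0.3, 1, 3 μM final; 0.1% DMSO) for 24 h if VHL-based, otherwise 72 h. RIPA lysates (10 μg protein) blotted for KRas, signal normalized to GAPDH and compared with DMSO.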

| Structure (SMILES) | Percent Degradation at Indicated Concentration (μM) (H2030, 3 μM) | Percent Degradation at Indicated Concentration (μM) (H2030 cells, 3 μM) | Percent Degradation at Indicated Concentration (μM): 0.3 (H2030 cells, 0.3 μM) | Percent Degradation at Indicated Concentration (μM): 1 (H2030 cells, 1 μM) | Percent Degradation at Indicated Concentration (μM): 3 (H2030 cells, 3 μM) | Dmax (H2030 cells) [%] | further results |
| --- | --- | --- | --- | --- | --- | --- | --- |
| CC(=O)N1CCN(c2nc(NCCC(=O)N(C)CCOCC(=O)N[C@H](C(=O)N3C[C@H](O)C[C@H]3C(=O)N[C@@H](C)c3ccc(-c4scnc4C)cc3)C(C)(C)C)nc3c(F)c(-c4cc(O)cc5ccccc45)c(Cl)cc23)CC1 [compound 200, (2S,4R)-1-((2S)-2-(2-(2-(3-((4-(4-acetylpiperazin-1-yl)-6-chloro-8-fluoro-7-(3-hydroxynaphthalen-1-yl)quinazolin-2-yl)amino)-N-methylpropanamido)ethoxy)acetamido)-3,3-dimethylbutanoyl)-4-hydroxy-N-((S)-1-(4-(4-methylthiazol-5-yl)phenyl)ethyl)pyrrolidine-2-carboxamide] | C (Percent Degradation: C ≤ 35) | – | – | – | – | – | Percent Degradation at Indicated Concentration (μM) (H2030, 0.3 μM): C (Percent Degradation: C ≤ 35); Percent Degradation at Indicated Concentration (μM) (H2030, 1 μM): C (Percent Degradation: C ≤ 35); Dmax: ≤ 35% |
| CN(CCOCCOCCOc1ccc2c(c1)C(=O)N(C1CCC(=O)NC1=O)C2=O)C(=O)CCNc1nc(N2CCN(C(=O)C(O)O)CC2)c2cc(Cl)c(-c3c(O)cccc3F)c(F)c2n1 [compound 152, 3-(((R)-6-chloro-4-(4-(2,2-dihydroxyacetyl)piperazin-1-yl)-8-fluoro-7-(2-fluoro-6-hydroxyphenyl)quinazolin-2-yl)amino)-N-(2-(2-(2-((2-(2,6-dioxopiperidin-3-yl)-1,3-dioxoisoindolin-5-yl)oxy)ethoxy)ethoxy)ethyl)-N-methylpropanamide] | – | C (Percent Degradation: C ≤ 35) | – | – | – | – | Percent Degradation at Indicated Concentration (μM) (H2030 cells, 0.3 μM): C (Percent Degradation: C ≤ 35); Percent Degradation at Indicated Concentration (μM) (H2030 cells, 1 μM): C (Percent Degradation: C ≤ 35) |
| CCC(=O)N1CCN(c2nc(NCCC(=O)N(C)CCOCC(=O)N[C@H](C(=O)N3C[C@H](O)C[C@H]3C(=O)N[C@@H](C)c3ccc(-c4scnc4C)cc3)C(C)(C)C)nc3c(F)c(-c4cc(O)cc5ccccc45)c(Cl)cc23)CC1 [compound 186, (2S,4R)-1-((2S)-2-(2-(2-(3-((6-chloro-8-fluoro-7-(3-hydroxynaphthalen-1-yl)-4-(4-propionylpiperazin-1-yl)quinazolin-2-yl)amino)-N-methylpropanamido)ethoxy)acetamido)-3,3-dimethylbutanoyl)-4-hydroxy-N-((S)-1-(4-(4-methylthiazol-5-yl)phenyl)ethyl)pyrrolidine-2-carboxamide] | – | – | C (C ≤ 35) | C (C ≤ 35) | C (C ≤ 35) | ≤ 35 | – |
| C=CC(=O)N1CCN(c2nc(NCCC(=O)N(C)CCOCCOCCOCCOCC(=O)N[C@H](C(=O)N3C[C@H](O)C[C@H]3C(=O)N[C@@H](C)c3ccc(-c4scnc4C)cc3)C(C)(C)C)nc3c(F)c(-c4cc(O)cc5ccccc45)c(Cl)cc23)CC1 (racemic) [compound 195, (2RS,4SR)-1-((RS)-21-((4-(4-acryloylpiperazin-1-yl)-6-chloro-8-fluoro-7-((RS)-3-hydroxynaphthalen-1-yl)quinazolin-2-yl)amino)-2-(tert-butyl)-18-methyl-4,19-dioxo-6,9,12,15-tetraoxa-3,18-diazahenicosanoyl)-4-hydroxy-N-((RS)-1-(4-(4-methylthiazol-5-yl)phenyl)ethyl)pyrrolidine-2-carboxamide] | C (Percent Degradation: C ≤ 35) | – | – | – | – | – | – |
| C=CC(=O)N1CCN(c2nc(NCCC(=O)N(C)CCOCC(=O)N[C@H](C(=O)N3C[C@H](O)C[C@H]3C(=O)N[C@@H](C)c3ccc(-c4scnc4C)cc3)C(C)(C)C)nc3c(F)c(-c4c(O)cccc4F)c(Cl)cc23)CC1 (atropisomer, axis not shown) [compound 205, (2S,4R)-1-((S)-2-(2-(2-(3-(((S)-4-(4-acryloylpiperazin-1-yl)-6-chloro-8-fluoro-7-(2-fluoro-6-hydroxyphenyl)quinazolin-2-yl)amino)-N-methylpropanamido)ethoxy)acetamido)-3,3-dimethylbutanoyl)-4-hydroxy-N-((S)-1-(4-(4-methylthiazol-5-yl)phenyl)ethyl)pyrrolidine-2-carboxamide] | C (Percent Degradation: C ≤ 35) | – | – | – | – | – | – |
| Cc1ncsc1-c1ccc([C@H](C)NC(=O)[C@@H]2C[C@@H](O)CN2C(=O)[C@@H](NC(=O)COCCOCCOCCN(C)C(=O)CCNc2nc(N3CCN(C(=O)C(O)O)CC3)c3cc(Cl)c(-c4c(O)cccc4F)c(F)c3n2)C(C)(C)C)cc1 (atropisomer, axis not shown) [compound 238, (2S,4R)-1-((S)-2-(tert-butyl)-18-((6-chloro-4-(4-(2,2-dihydroxyacetyl)piperazin-1-yl)-8-fluoro-7-((S)-2-fluoro-6-hydroxyphenyl)quinazolin-2-yl)amino)-15-methyl-4,16-dioxo-6,9,12-trioxa-3,15-diazaoctadecanoyl)-4-hydroxy-N-((S)-1-(4-(4-methylthiazol-5-yl)phenyl)ethyl)pyrrolidine-2-carboxamide] | – | C (Percent Degradation: C ≤ 35) | – | – | – | – | – |
| CN(CCOCCOc1ccc2c(c1)C(=O)N(C1CCC(=O)NC1=O)C2=O)C(=O)CCNc1nc(N2CCN(C(=O)C(O)O)CC2)c2cc(Cl)c(-c3c(O)cccc3F)c(F)c2n1 [compound 150, 3-(((R)-6-chloro-4-(4-(2,2-dihydroxyacetyl)piperazin-1-yl)-8-fluoro-7-(2-fluoro-6-hydroxyphenyl)quinazolin-2-yl)amino)-N-(2-(2-((2-(2,6-dioxopiperidin-3-yl)-1,3-dioxoisoindolin-5-yl)oxy)ethoxy)ethyl)-N-methylpropanamide] | – | C (Percent Degradation: C ≤ 35) | – | – | – | – | Percent Degradation at Indicated Concentration (μM) (H2030 cells, 0.3 μM): C (Percent Degradation: C ≤ 35); Percent Degradation at Indicated Concentration (μM) (H2030 cells, 1 μM): C (Percent Degradation: C ≤ 35) |
| CCC(=O)N1CCN(c2nc(NCCC(=O)N(C)CCOCCOCCOc3cc(-c4scnc4C)ccc3CNC(=O)[C@@H]3C[C@@H](O)CN3C(=O)[C@H](c3cc(C)no3)C(C)C)nc3c(F)c(-c4cc(O)cc5ccccc45)c(Cl)cc23)CC1 [compound 333, (2S,4R)-N-(2-(2-(2-(2-(3-((6-chloro-8-fluoro-7-(3-hydroxynaphthalen-1-yl)-4-(4-propionylpiperazin-1-yl)quinazolin-2-yl)amino)-N-methylpropanamido)ethoxy)ethoxy)ethoxy)-4-(4-methylthiazol-5-yl)benzyl)-4-hydroxy-1-((S)-3-methyl-2-(3-methylisoxazol-5-yl)butanoyl)pyrrolidine-2-carboxamide] | – | – | C (C ≤ 35) | C (C ≤ 35) | C (C ≤ 35) | ≤ 35 | – |

Continued, in another order:

| Percent Degradation at Indicated Concentration (μM) (H2030, 3 μM) | Percent Degradation at Indicated Concentration (μM) (H2030 cells, 3 μM) | Percent Degradation at Indicated Concentration (μM): 0.3 (H2030 cells, 0.3 μM) | Percent Degradation at Indicated Concentration (μM): 1 (H2030 cells, 1 μM) | Percent Degradation at Indicated Concentration (μM): 3 (H2030 cells, 3 μM) | Dmax (H2030 cells) [%] | Structure (SMILES) | further results |
| --- | --- | --- | --- | --- | --- | --- | --- |
| – | – | C (C ≤ 35) | C (C ≤ 35) | C (C ≤ 35) | ≤ 35 | C=CC(=O)N1CCN(c2nc(NCCC(=O)N(C)CCOCCOc3cc(-c4scnc4C)ccc3CNC(=O)[C@@H]3C[C@@H](O)CN3C(=O)[C@@H](c3cc(C)no3)C(C)C)nc3c(F)c(-c4cc(O)cc5ccccc45)c(Cl)cc23)CC1 [compound 339] | – |
| – | – | C (C ≤ 35) | C (C ≤ 35) | C (C ≤ 35) | ≤ 35 | CCC(=O)N1CCN(c2nc(NCCC(=O)N(C)CCOCCOCCOCCOCCOc3cc(-c4scnc4C)ccc3CNC(=O)[C@@H]3C[C@@H](O)CN3C(=O)C(c3cc(C)no3)C(C)C)nc3c(F)c(-c4cc(O)cc5ccccc45)c(Cl)cc23)CC1 (stereo partly drawn) [compound 336, (2S,4R)-N-(2-((18-((6-chloro-8-fluoro-7-(3-hydroxynaphthalen-1-yl)-4-(4-propionylpiperazin-1-yl)quinazolin-2-yl)amino)-15-methyl-16-oxo-3,6,9,12-tetraoxa-15-azaoctadecyl)oxy)-4-(4-methylthiazol-5-yl)benzyl)-4-hydroxy-1-(3-methyl-2-(3-methylisoxazol-5-yl)butanoyl)pyrrolidine-2-carboxamide] | – |
| – | C (Percent Degradation: C ≤ 35) | – | – | – | – | C=CC(=O)N1CCN(c2nc(O[C@H](C)CN3CCC(OCCOCCOc4ccc5c(c4)CN(C4CCC(=O)NC4=O)C5=O)CC3)nc3c2CCN(c2cc(O)cc4ccccc24)C3)CC1 (stereo partly drawn) [compound 422, 3-(5-(2-(2-((1-((R)-2-((4-(4-acryloylpiperazin-1-yl)-7-(3-hydroxynaphthalen-1-yl)-5,6,7 ,8-tetrahydropyrido[3,4-d]pyrimidin-2-yl)oxy)propyl)piperidin-4-yl)oxy)ethoxy)ethoxy)-1-oxoisoindolin-2-yl)piperidine-2,6-dione] | Percent Degradation at Indicated Concentration (μM) (H2030 cells, 0.3 μM): C (Percent Degradation: C ≤ 35); Percent Degradation at Indicated Concentration (μM) (H2030 cells, 1 μM): C (Percent Degradation: C ≤ 35) |
| C (Percent Degradation: C ≤ 35) | – | – | – | – | – | C=CC(=O)N1CCN(c2nc(NCCC(=O)N(C)CCOCCOCCOCCOCCOc3cc(-c4scnc4C)ccc3CNC(=O)[C@@H]3C[C@@H](O)CN3C(=O)[C@H](c3cc(C)no3)C(C)C)nc3c(F)c(-c4cc(O)cc5ccccc45)c(Cl)cc23)CC1 [compound 346, (2S,4R)-N-(2-((18-((4-(4-acryloylpiperazin-1-yl)-6-chloro-8-fluoro-7-(3-hydroxynaphthalen-1-yl)quinazolin-2-yl)amino)-15-methyl-16-oxo-3,6,9,12-tetraoxa-15-azaoctadecyl)oxy)-4-(4-methylthiazol-5-yl)benzyl)-4-hydroxy-1-((S)-3-methyl-2-(3-methylisoxazol-5-yl)butanoyl)pyrrolidine-2-carboxamide] | Percent Degradation at Indicated Concentration (μM) (H2030, 0.3 μM): C (Percent Degradation: C ≤ 35); Percent Degradation at Indicated Concentration (μM) (H2030, 1 μM): C (Percent Degradation: C ≤ 35); Dmax: ≤ 35% |
